Results taken from patent US20110281802A1, “COMPOSITION FOR TREATMENT AND PREVENTION OF HAIR LOSS AND PREMATURE GRAYING OF HAIR” (Immudiagnostik AG, priority 2007, published 2011).

Assays:
Type in all cases: cell-based
[1] = tested on: human anagen VI hair follicles; experiment: Hair shaft elongation of organ-cultured hair follicles, assay #1 (culture HF 429); conditions: for Hair growth compared with control (in words): p<0.05
Protocol: (§1) Human anagen VI hair follicles were isolated from scalp skin obtained from three different individuals undergoing routine face-lift surgery. All experiments were performed according to Helsinki guidelines.
(§2) Hair follicles were isolated as described (Philpott MP et al, Human hair growth in vitro; J Cell Science 1990, 97(Pt 3):463-71). Isolated HFs were maintained in supplemented, serum-free Williams E medium (Biochrom, Cambridge, UK) supplemented with 2 mMol/L L-glutamine (Invitrogen, Paisley, UK), 10 ng/mL hydrocortisone (Sigma-Aldrich, Taufkirchen, Germany), 10 μg/mL insulin (Sigma-Aldrich), and 1% antibiotic/antimycotic mixture (Gibco, Karlsruhe, Germany). Hair follicles were placed in a 24-well plate with 500 μL medium (day 0) and incubated in a CO2-incubator (5% CO2, 37° C.) over night without any treatment. The next day (day 1) medium was exchanged and test substance was added to each well (5 μL of stock solution was added to 495 μL culture medium). The medium or medium with test substance was changed every 48 hours.
Assay #1 Culture HF429: Hair follicles were grown in the wells of a microtiter plate (3 follicles per well) and treated for 9 days with culture medium and test substance as indicated in FIG. 1. Thereafter, elongation, melanogenesis and hair cycle stage were determined.
(§3) Hair shaft length measurements were performed every second day on individual hair follicles using a binocular microscope with an eyepiece measuring reticule. The length of the follicle was defined as the distance between the base of the bulb and the cut end of the hair fibre (Philpott MP et al, Human hair growth in vitro; J Cell Science 1990, 97(Pt 3):463-71).
(§4) All data were analysed by two-tailed unpaired t-test (SPSS analysis software SPSS Inc., Chicago, USA). For determination of elongation, two outliers at top and bottom end of value range were eliminated; with the measurement of melanogenesis one outlier at both, top and bottom range, was eliminated. Results are given as mean value and standard error of measurement (SEM).

[2] = tested on: human anagen VI hair follicles; experiment: Hair shaft elongation of organ-cultured hair follicles, assay #2 (culture HF 441)
Protocol: as §1, §2, §3, §4

[3] = tested on: human anagen hair follicles; experiment: Ki67/TUNEL staining, percentage of proliferating cells, assay #3; conditions: after 9 days of culture, Anagen only
Protocol: Assay #3 Culture HF 446: Eight hair follicle cultures (3 follicles/well) were treated with various concentration of test substance as described for 2 days, followed by snap freezing and sectioning of two wells. Six wells were treated up to 9 days, then snap frozen and sectioned. The distribution of test substances and concentrations were as indicted in FIG. 3. The parameter measured after two days was proliferation/apoptosis, and the parameters measured after 9 days were elongation, proportion of cells in proliferation/apoptosis, and hair cycle stage
After nine days, Ki67/TUNEL staining was performed and photos taken.
Proliferating and resting cells as well as cells undergoing apoptosis were counted separately proximal Auber's line. Results are expressed as percentages. For Ki-67/TUNEL staining, fixed sections were incubated for 60 minutes in a solution comprising 30% TdT-enzyme (Chemicon International, Inc., Temecula, Calif., USA; CatNo S1707). 2 mL stop buffer (Chemicon International, Inc.; CatNo S7110), diluted in 68 mL distilled water, was added for 10 minutes to stop the reaction. This was followed by a pre-incubation for 20 minutes with 10% goat serum (Dako Cytomation, CatNo 50114121) and incubation with mouse-anti human Ki-67 antigen (Chemicon International, Inc., CatNo S7110) 1:20 in PBS with 2% goat serum. The fixed section was then washed in PBS, treated with anti-digoxigenin antibody (Chemicon International, Inc., CatNo S7110) (59DI Antibody solution and 5601 Stop solution, 30 minutes) and goat anti-mouse-IgG-rhodamine red (Jackson Immuno Research, Suffolk, UK; CatNo 115-295-062), 1:200 in PBS with 2% goat serum. After washes with PBS, counterstaining with DAPI™ ([…]) (Roche, Basel, Switzerland; CatNo 236276) and further washes with PBS and mounting using Fluoromount (Southern Biotech, Birmingham, Ala., USA; CatNo 0100-01).
After nine days, Ki67/TUNEL staining was performed and photos were taken. In anagen hair follicles, proliferating cells and cells undergoing apoptosis were counted separately proximal Auber's line. Results are expressed as percentages. […] The results are summarized in Table 6 and FIG. 9 showing the mean percentage of Ki6 7 positive cells with SEM

human hair follicles = experiment: Hair cycle staging of cultured hair follicles (assays #1, #2, #3)
Protocol: (§5) Photodocuments from the Fontana Masson staining were used for hair follicle staging according to previously well-defined morphological criteria (Stenn K S et al, Controls of Hair Follicle Cycling; Physiol Rev 2001, 81:449-494, Müller-Röver S et al, A Comprehensive Guide for the Accurate Classification of Murine Hair Follicles in Distinct Hair Cycle Stages; J Invest Dermatol 2001, 117:3-15). The percentage of hair follicles in anagen, early, mid and late catagen was determined.
as §5, with “determined in the different assays.” for “determined.”

In the case of Thymosin beta-4 [TB4], the “Mean elongation in % compared to day 1” value ([1]; 100 ng/mL, Day 0) was 0.00%, the “Mean elongation in % compared to day 1” value ([1]; 100 ng/mL, Day 1) was 12.26% and the “Mean elongation in % compared to day 1” value ([1]; 100 ng/mL, Day 3) was 35.49%. For the same substance, the “Mean elongation in % compared to day 1” value ([1]; 100 ng/mL, Day 5) was 49.79%, the “Mean elongation in % compared to day 1” value ([1]; 100 ng/mL, Day 7) was 61.36% and the “Mean elongation in % compared to day 1” value ([1]; 100 ng/mL, Day 9) was 74.11%. The “Hair growth compared with control (in words)” value ([1]; 100 ng/mL) was “significant lack of hair growth”, the “Mean elongation in % compared to day 1” value ([1]; 1000 ng/mL, Day 0) was 0.00% and the “Mean elongation in % compared to day 1” value ([1]; 1000 ng/mL, Day 1) was 14.20%. The “Mean elongation in % compared to day 1” value ([1]; 1000 ng/mL, Day 3) was 39.31%, the “Mean elongation in % compared to day 1” value ([1]; 1000 ng/mL, Day 5) was 66.20% and the “Mean elongation in % compared to day 1” value ([1]; 1000 ng/mL, Day 7) was 90.23%. The “Mean elongation in % compared to day 1” value ([1]; 1000 ng/mL, Day 9) was 103.17%, the “Mean elongation in % compared to day 0” value ([2]; 100 ng/mL, Day 3) was 19.35% and the “Mean elongation in % compared to day 0” value ([2]; 100 ng/mL, Day 5) was 31.66%. For the same substance, the “Mean elongation in % compared to day 0” value ([2]; 100 ng/mL, Day 7) was 41.77%, the “Mean elongation in % compared to day 0” value ([2]; 100 ng/mL, Day 9) was 49.94% and the “Mean elongation in % compared to day 0” value ([2]; 100 ng/mL, Day O) was 0%. For the same substance, the “Mean elongation in % compared to day 0” value ([2]; 1000 ng/mL, Day 3) was 21.68%, the “Mean elongation in % compared to day 0” value ([2]; 1000 ng/mL, Day 5) was 32.59% and the “Mean elongation in % compared to day 0” value ([2]; 1000 ng/mL, Day 7) was 37.48%. The “Mean elongation in % compared to day 0” value ([2]; 1000 ng/mL, Day 9) was 43.30%, the “Mean elongation in % compared to day 0” value ([2]; 1000 ng/mL, Day O) was 0% and the “Mean percentage of Ki67-positive cells” value ([3]; 100 ng/mL) was 39.30 percentage. For the same substance, the “Mean percentage of Ki67-positive cells” value ([3]; 1000 ng/mL) was 33.14 percentage, the “Proportion in catagen compared to control (in words)” value (human hair follicles; 100 ng, Assay #1 and #3) was “higher proportion of cells in catagen compared to control” and the “Proportion in the stage of anagen compared with controls (in words)” value (human hair follicles; 1000 ng/mL, after nine days) was “consistently more cells in the stage of anagen”.
In the case of thymulin, the “Mean elongation with thymulin in percent compared to day 0” value (shortened to “Mean elongation with thymulin in percent”) ([1]; 10 pg/mL, Day 0) was 0%, the “Mean elongation with thymulin in percent” value ([1]; 10 pg/mL, Day 1) was 13.19% and the “Mean elongation with thymulin in percent” value ([1]; 10 pg/mL, Day 3) was 37.58%. For the same substance, the “Mean elongation with thymulin in percent” value ([1]; 10 pg/mL, Day 5) was 64.05%, the “Mean elongation with thymulin in percent” value ([1]; 10 pg/mL, Day 7) was 75.10% and the “Mean elongation with thymulin in percent” value ([1]; 10 pg/mL, Day 9) was 90.98%. For the same substance, the “Mean elongation with thymulin in percent” value ([1]; 100 pg/mL, Day 0) was 0%, the “Mean elongation with thymulin in percent” value ([1]; 100 pg/mL, Day 1) was 11.33% and the “Mean elongation with thymulin in percent” value ([1]; 100 pg/mL, Day 3) was 31.50%. The “Mean elongation with thymulin in percent” value ([1]; 100 pg/mL, Day 5) was 53.75%, the “Mean elongation with thymulin in percent” value ([1]; 100 pg/mL, Day 7) was 68.76% and the “Mean elongation with thymulin in percent” value ([1]; 100 pg/mL, Day 9) was 83.13%. The “Hair growth compared with control (in words)” value ([1]; 100 pg/mL) was “significant lack of hair growth”, the “Mean elongation in % compared to day 0” value ([2]; 10 pg/mL, Day 3) was 20.86% and the “Mean elongation in % compared to day 0” value ([2]; 10 pg/mL, Day 5) was 34.97%. The “Mean elongation in % compared to day 0” value ([2]; 10 pg/mL, Day 7) was 43.26%, the “Mean elongation in % compared to day 0” value ([2]; 10 pg/mL, Day 9) was 58.90% and the “Mean elongation in % compared to day 0” value ([2]; 10 pg/mL, Day O) was 0%. For the same substance, the “Mean percentage of Ki67-positive cells” value ([3]; 10 pg/mL) was 31.58 percentage, the “Mean percentage of Ki67-positive cells” value ([3]; 100 pg/mL) was 35.75 percentage and the “Proportion of HFs in anagen compared with control groups (in words)” value (human hair follicles; 10 pg and 100 pg/mL, three assays, 9-day treatment) was “consistently a higher proportion of HFs in anagen than control groups”.
